In ChEMBL document CHEMBL1138490, “Gamma-aminobutyric acid amides of nortriptyline and fluoxetine display improved pain suppressing activity” (2009):
Active and inactive are the calls of the source. The rule behind the calls is not given here.

Tests used:
Mus musculus [1] = assay: Anxiolytic activity in BALB/c mouse assessed as velocity at equimolar oral dose relative to 1 mg/kg nortriptyline after 90 mins by open-field test (RVb= 7.07+/-0.51 cm/s); type: functional
Mus musculus [2] = assay: Antinociceptive activity in BALB/c mouse assessed as increase in paw withdrawal latency time at 0.2 mg/kg, po equimolar dose of nortriptyline daily measured after 3 to 5 hrs on day 10 to 12; type: functional, organism-based; design: dose 0.2 mg/kg
Mus musculus [3] = assay: Antinociceptive activity in BALB/c mouse assessed as decrease in inhibition of paw withdrawal latency at 0.1 mg/kg, po after by hot plate method; type: functional, organism-based; design: dose 0.1 mg/kg
Mus musculus [4] = assay: Antinociceptive activity in BALB/c mouse assessed as decrease in inhibition of paw withdrawal latency at 2.39 mg/kg, po after by hot plate method; type: functional, organism-based; design: dose 2.39 mg/kg
Mus musculus [5] = assay: Antinociceptive activity against formalin-induced pain in BALB/c mouse assessed paw licking, biting or shaking at 0.5 mg/kg, po administered 2 hrs before formalin challenge measured after 0 to 5 mins relative to control; type: functional, organism-based; design: dose 0.5 mg/kg
Mus musculus [6] = assay: Antinociceptive activity against formalin-induced pain in BALB/c mouse assessed paw licking, biting or shaking at 0.5 mg/kg, po administered 2 hrs before formalin challenge measured after 25 to 35 mins relative to control; type: functional, organism-based; design: dose 0.5 mg/kg
Mus musculus [7] = assay: Antinociceptive activity against formalin-induced pain in BALB/c mouse assessed paw licking, biting or shaking at 5 mg/kg, po administered 2 hrs before formalin challenge measured after 0 to 5 mins relative to control; type: functional, organism-based; design: dose 5 mg/kg
Mus musculus [8] = assay: Antinociceptive activity against formalin-induced pain in BALB/c mouse assessed paw licking, biting or shaking at 5 mg/kg, po administered 2 hrs before formalin challenge measured after 25 to 35 mins relative to control; type: functional, organism-based; design: dose 5 mg/kg
Mus musculus [9] = assay: Antinociceptive activity against formalin-induced pain in BALB/c mouse assessed paw licking, biting or shaking at 0.5 mg/kg, po equimolar dose of nortriptyline administered 2 hrs before formalin challenge measured after 0 to 5 mins relative to control; type: functional, organism-based; design: dose 0.5 mg/kg
Mus musculus [10] = assay: Antinociceptive activity against formalin-induced pain in BALB/c mouse assessed paw licking, biting or shaking at 0.5 mg/kg, po equimolar dose of nortriptyline administered 2 hrs before formalin challenge measured after 25 to 35 mins relative to control; type: functional, organism-based; design: dose 0.5 mg/kg
Mus musculus [11] = assay: Antinociceptive activity against formalin-induced pain in BALB/c mouse assessed paw licking, biting or shaking at 5 mg/kg, po equimolar dose of nortriptyline administered 2 hrs before formalin challenge measured after 0 to 5 mins relative to control; type: functional, organism-based; design: dose 5 mg/kg
Mus musculus [12] = assay: Antinociceptive activity against formalin-induced pain in BALB/c mouse assessed paw licking, biting or shaking at 5 mg/kg, po equimolar dose of nortriptyline administered 2 hrs before formalin challenge measured after 25 to 35 mins relative to control; type: functional, organism-based; design: dose 5 mg/kg
Mus musculus [13] = assay: Anxiolytic activity in BALB/c mouse assessed as immobility at equimolar oral dose relative to 1 mg/kg nortriptyline after 90 mins by open-field test (RVb= 458.4+/-41 s); type: functional
Mus musculus [14] = assay: Anxiolytic activity in BALB/c mouse assessed as immobility at equimolar oral dose relative to 5 mg/kg nortriptyline after 90 mins by open-field test (RVb= 458.4+/-41 s); type: functional
Mus musculus [15] = assay: Anxiolytic activity in BALB/c mouse assessed as immobility at equimolar oral dose relative to 15 mg/kg nortriptyline after 90 mins by open-field test (RVb= 458.4+/-41 s); type: functional
Mus musculus [16] = assay: Antiinflammatory activity against formalin-induced BALB/c mouse skin assessed as reduction in TNFalpha level at to 0.5 mg/kg, po; type: functional, organism-based; design: dose 0.5 mg/kg
Rattus norvegicus [17] = assay: Antiinflammatory activity against gamma carrageenan-induced paw edema in Wistar rat assessed as reduction in paw volume at 5 mg/kg, po administered 2 hrs before carrageenan challenge measured after 4 hrs relative to control; type: functional, organism-based; design: dose 5 mg/kg
Rattus norvegicus [18] = assay: Antiinflammatory activity against gamma carrageenan-induced paw edema in Wistar rat assessed as reduction in paw volume at 5 mg/kg, po equimolar dose of nortriptyline administered 2 hrs before carrageenan challenge measured after 4 hrs relative to control; type: functional, organism-based; design: dose 5 mg/kg
Rattus norvegicus [19] = assay: Antiinflammatory activity against gamma carrageenan-induced paw edema in Wistar rat assessed as reduction in paw volume at 5 mg/kg, po administered 2 hrs before carrageenan challenge measured after 24 hrs relative to control; type: functional, organism-based; design: dose 5 mg/kg
Rattus norvegicus [20] = assay: Antiinflammatory activity against gamma carrageenan-induced paw edema in Wistar rat assessed as reduction in paw volume at 5 mg/kg, po equimolar dose of nortriptyline administered 2 hrs before carrageenan challenge measured after 24 hrs relative; type: functional, organism-based; design: dose 5 mg/kg
Rattus norvegicus [21] = assay: Antiinflammatory activity against gamma carrageenan-induced paw edema in Wistar rat assessed as paw volume at 5 mg/kg, po equimolar dose of nortriptyline administered 2 hrs before carrageenan challenge relative to control; type: functional, organism-based; design: dose 5 mg/kg
Rattus norvegicus [22] = species: Rattus norvegicus; assay: Displacement of [3H]muscimol from GABAA receptor in rat cerebral cortex; type: tissue-based; conditions: concentration not given here
Rattus norvegicus [23] = species: Rattus norvegicus; assay: Displacement of [3H]GABA from non selective GABA receptor in rat cerebral cortex; type: tissue-based; conditions: concentration not given here
Mus musculus [24] = assay: Anxiolytic activity in BALB/c mouse assessed as distance moved at equimolar oral dose relative to 5 mg/kg nortriptyline after 90 mins by open-field test (RVb= 8485+/-610 cm); type: functional
Mus musculus [25] = assay: Anxiolytic activity in BALB/c mouse assessed as distance moved at equimolar oral dose relative to 1 mg/kg nortriptyline after 90 mins by open-field test (RVb= 8485+/-610 cm); type: functional
Mus musculus [26] = assay: Anxiolytic activity in BALB/c mouse assessed as distance moved at equimolar oral dose relative to 15 mg/kg nortriptyline after 90 mins by open-field test (RVb= 8485+/-610 cm); type: functional
Mus musculus [27] = assay: Anxiolytic activity in BALB/c mouse assessed as velocity at equimolar oral dose relative to 5 mg/kg nortriptyline after 90 mins by open-field test (RVb= 7.07+/-0.51 cm/s); type: functional
Mus musculus [28] = assay: Anxiolytic activity in BALB/c mouse assessed as velocity at equimolar oral dose relative to 15 mg/kg nortriptyline after 90 mins by open-field test (RVb= 7.07+/-0.51 cm/s); type: functional
Mus musculus [29] = assay: Antinociceptive activity in BALB/c mouse assessed as […] at 0.25 mg/kg, po after 240 mins by hot plate method; type: functional, organism-based; design: dose 0.25 mg/kg
Mus musculus [30] = assay: Antinociceptive activity in BALB/c mouse assessed as […] at 4.5 mg/kg, po after 240 mins by hot plate method; type: functional, organism-based; design: dose 4.5 mg/kg
Mus musculus [31] = assay: Antinociceptive activity in BALB/c mouse assessed as […] at 0.5 mg/kg, po equimolar dose of nortriptyline after 240 mins by hot plate method; type: functional, organism-based; design: dose 0.5 mg/kg
Mus musculus [32] = assay: Antinociceptive activity in BALB/c mouse assessed as […] at 0.25 mg/kg, po equimolar dose of nortriptyline after 240 mins by hot plate method; type: functional, organism-based; design: dose 0.25 mg/kg
Mus musculus [33] = assay: Antinociceptive activity in BALB/c mouse assessed as […] at 4.5 mg/kg, po equimolar dose of nortriptyline after 240 mins by hot plate method; type: functional, organism-based; design: dose 4.5 mg/kg
Mus musculus [34] = assay: Antinociceptive activity in BALB/c mouse assessed as […] at 10 mg/kg, po after 240 mins by hot plate method; type: functional, organism-based; design: dose 10 mg/kg
Mus musculus [35] = assay: Antinociceptive activity in BALB/c mouse assessed as paw withdrawal latency at 0.4 mg/kg, po after 2 to 4 hrs by hot plate method; type: functional, organism-based; design: dose 0.4 mg/kg
Mus musculus [36] = assay: Antinociceptive activity in BALB/c mouse assessed as paw withdrawal latency at 0.4 mg/kg, po equimolar dose of nortriptyline after 2 to 4 hrs by hot plate method; type: functional, organism-based; design: dose 0.4 mg/kg
Mus musculus [37] = assay: Antinociceptive activity in BALB/c mouse assessed as increase in paw withdrawal latency time at 0.2 mg/kg, po daily for 12 days measured after 3 to 5 hrs on day 1; type: functional, organism-based; design: dose 0.2 mg/kg
Mus musculus [38] = assay: Antinociceptive activity in BALB/c mouse assessed as increase in paw withdrawal latency time at 0.2 mg/kg, po equimolar dose of nortriptyline daily measured after 3 to 5 hrs on day 1; type: functional, organism-based; design: dose 0.2 mg/kg
Mus musculus [39] = assay: Antinociceptive activity in BALB/c mouse assessed as increase in paw withdrawal latency time at 0.2 mg/kg, po equimolar dose of nortriptyline daily measured after 3 to 5 hrs on day 3 to 12; type: functional, organism-based; design: dose 0.2 mg/kg

## CN(CCC=C1c2ccccc2CCc2ccccc21)C(=O)CCCN.Cl [BL-1021]
Mus musculus [1]
  Activity: 6.72 cm/s
Mus musculus [2]
  Activity: Active
Mus musculus [3]
  Activity: Active
Mus musculus [4]
  Activity: Active
Mus musculus [5]
  Activity: Active
Mus musculus [6]
  Activity: Active
Mus musculus [7]
  Activity: Active
Mus musculus [8]
  Activity: Active
Mus musculus [9]
  Activity: Active
Mus musculus [10]
  Activity: Active
Mus musculus [11]
  Activity: Active
Mus musculus [12]
  Activity: Active
Mus musculus [13]
  Activity: 447.2 s
Mus musculus [14]
  Activity: 467.9 s
Mus musculus [15]
  Activity: 572.8 s
Mus musculus [16]
  Activity: Active
Rattus norvegicus [17]
  Activity: inactive
Rattus norvegicus [18]
  Activity: inactive
Rattus norvegicus [19]
  Activity: inactive
Rattus norvegicus [20]
  Activity: inactive
Rattus norvegicus [21]
  Activity: Active
Rattus norvegicus [22]
  inhibition: 11%
Rattus norvegicus [23]
  inhibition: 6%
Mus musculus [24]
  Activity: 8157 cm
Mus musculus [25]
  Activity: 8053 cm
Mus musculus [26]
  Activity: 7413 cm
Mus musculus [27]
  Activity: 6.85 cm/s
Mus musculus [28]
  Activity: 6.18 cm/s
Mus musculus [29]
  Activity: Active
Mus musculus [30]
  Activity: Active
Mus musculus [31]
  Activity: Active
Mus musculus [32]
  Activity: Active
Mus musculus [33]
  Activity: Active
Mus musculus [34]
  Activity: Active
Mus musculus [35]
  Activity: Active
Mus musculus [36]
  Activity: Active
Mus musculus [37]
  Activity: Active
Mus musculus [38]
  Activity: Active
Mus musculus [39]
  Activity: Active
